Data taken from patent US7728155B2, “Dihydrobenzofuranyl alkanamines and methods for using same as cns agents” (Wyeth LLC, priority 2003, dated 2010).
Where a name gives a salt, the structure may show the parent alone.

Biological target: T1, human 5-hydroxytryptamine-2C (h5-HT2C) receptor (Homo sapiens, UniProt P28335)
T1 construct: expressed in transfected cells; host or cells: CHO (Chinese Hamster Ovary) cells; membranes
T1 sequence (P28335 33-458): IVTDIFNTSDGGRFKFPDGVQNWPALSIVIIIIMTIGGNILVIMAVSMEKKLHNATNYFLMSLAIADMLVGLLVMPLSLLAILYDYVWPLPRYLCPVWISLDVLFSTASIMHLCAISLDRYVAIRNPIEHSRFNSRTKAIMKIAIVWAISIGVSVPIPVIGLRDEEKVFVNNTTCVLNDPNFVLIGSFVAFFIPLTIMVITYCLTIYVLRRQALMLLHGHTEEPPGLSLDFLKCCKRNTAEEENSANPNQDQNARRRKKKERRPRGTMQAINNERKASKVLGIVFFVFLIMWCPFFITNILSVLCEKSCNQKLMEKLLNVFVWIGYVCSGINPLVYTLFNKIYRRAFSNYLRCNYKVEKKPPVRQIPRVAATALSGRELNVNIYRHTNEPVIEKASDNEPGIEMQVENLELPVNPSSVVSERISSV
Test: [125I]DOI binding affinity at h5-HT2C receptor, CHO cell membranes
Settings: [125I]DOI displacement, CHO membranes expressing h5-HT2C; read-out: 5-HT2C Affinity Ki
With `CNCC1Cc2c(Cl)cc3c(c2O1)CCC3` (racemic) [Example 28, (±)-1-(4-chloro-3,6,7,8-tetrahydro-2H-indeno[4,5-b]furan-2-yl)-N-methylmethanamine] the Ki was 0.011 µM.

Test system: not given
Test: not given
Settings: not given
For `NCC1Cc2ccc3c(c2O1)CCCC3` (racemic) (as salt: hydrochloride) [Example 4, (±)-1-(2,3,6,7,8,9-hexahydronaphtho[1,2-b]furan-2-yl)methanamine], the melting point was > 220 °C (dec.). In the case of `Cc1cc2c(c3c1CCC3)OC(CN)C2` (racemic) (as salt: hydrochloride) [Example 7, (±)-1-(5-methyl-3,6,7,8-tetrahydro-2H-indeno[4,5-b]furan-2-yl)methanamine], the melting point is reported as > 200 °C (dec.). In the case of `NCC1Cc2ccc3ccccc3c2O1` (racemic) (as salt: hydrochloride) [Example 10, (±)-1-(2,3-dihydronaphtho[1,2-b]furan-2-yl)methanamine], the melting point is reported as > 250 °C (dec.). In the case of `NCC1Cc2cc3c(cc2O1)CCCC3` (racemic) (as salt: hydrochloride) [Example 13, (±)-1-(2,3,5,6,7,8-hexahydronaphtho[2,3-b]furan-2-yl)methanamine], the melting point is reported as greater than 225 °C. `NCC1Cc2c(ccc3c2CCCC3)O1` (racemic) (as salt: hydrochloride) [Example 14, (±)-1-(1,2,6,7,8,9-hexahydronaphtho[2,1-b]furan-2-yl)methanamine] showed a melting point greater than 225 °C. Work on `COc1cc2c(c3c1C1CCC3CC1)OC(CN)C2` (racemic) (as salt: hydrochloride) [Example 19, (±)-1-(5-methoxy-2,3,6,7,8,9-hexahydro-6,9-ethanonaphtho[1,2-b]furan-2-yl)methanamine] yielded a melting point greater than 210 °C. `NCC1Cc2cc(Cl)c3ccccc3c2O1` (racemic) (as salt: hydrochloride) [Example 23, (±)-1-(5-chloro-2,3-dihydronaphtho[1,2-b]furan-2-yl)methanamine] gave a melting point of 269 to 271 °C. Work on `CNCC1Cc2cc(Cl)c3ccccc3c2O1` (racemic) (as salt: hydrochloride) [Example 24, (±)-1-(5-chloro-2,3-dihydronaphtho[1,2-b]furan-2-yl)-N-methylmethanamine] yielded a melting point of 224 to 226 °C. `NCC1Cc2c(Cl)cc3c(c2O1)CCC3` (racemic) (as salt: hydrochloride) [Example 25, (±)-1-(4-chloro-3,6,7,8-tetrahydro-2H-indeno[4,5-b]furan-2-yl)methanamine] gave a melting point of 251 to 254 °C. With `NCC1Cc2cc(Cl)c3c(c2O1)CCC3` (racemic) (as salt: hydrochloride) [Example 29, (±)-1-(5-chloro-3,6,7,8-tetrahydro-2H-indeno[4,5-b]furan-2-yl)methanamine] the melting point was 270 °C (dec.). Work on `CNCC1Cc2c(Cl)cc3c(c2O1)CCC3` (racemic) [Example 28, (±)-1-(4-chloro-3,6,7,8-tetrahydro-2H-indeno[4,5-b]furan-2-yl)-N-methylmethanamine] yielded a melting point of 58 to 60 °C. `C[C@@H](N)[C@H]1Cc2ccc3c(c2O1)CCC3` (relative stereo) (as salt: hydrochloride) [Example 22, (2R*)-1-[(2R*)-3,6,7,8-tetrahydro-2H-indeno[4,5-b]furan-2-yl]ethylamine] showed a melting point greater than 250 °C. With `COc1cc2c(c3c1C1CCC3C1)OC(CN)C2` (single isomer, unassigned) (as salt: hydrochloride) [Example 16, (9-methoxy-4-oxatetracyclo[9.2.1.0^2,10.0^3,7]tetradeca-2,7,9-trien-5-yl)methylamine] the melting point was > 180 °C (dec.). In the case of `COc1cc2c(c3c1C1CCC3C1)OC(CN)C2` (single isomer, unassigned) (as salt: hydrochloride) [Example 17, (9-methoxy-4-oxatetracyclo[9.2.1.0^2,10.0^3,7]tetradeca-2,7,9-trien-5-yl)methylamine], the melting point is reported as > 150 °C (dec.). `Cc1cc2c(c3c1CCC3)OC(CN)C2` (single isomer, unassigned; (+)) (as salt: hydrochloride) [Example 8, (+)-1-(5-methyl-3,6,7,8-tetrahydro-2H-indeno[4,5-b]furan-2-yl)methanamine] gave a melting point greater than 220 °C. `COc1cc2c(c3c1C1CCC3CC1)OC(CN)C2` (single isomer, unassigned; (+)) (as salt: hydrochloride) [Example 20, (+)-1-(5-methoxy-2,3,6,7,8,9-hexahydro-6,9-ethanonaphtho[1,2-b]furan-2-yl)methanamine] gave a melting point greater than 220 °C. With `NCC1Cc2cc(Cl)c3c(c2O1)CCC3` (single isomer, unassigned; (-)) (as salt: hydrobromid) [Example 30, (−)-1-(5-chloro-3,6,7,8-tetrahydro-2H-indeno[4,5-b]furan-2-yl)methanamine] the melting point was greater than 330 °C. In the case of `NCC1Cc2c(Cl)cc3c(c2O1)CCC3` (single isomer, unassigned; (-)) (as salt: hydrochloride) [Example 26, (−)-1-(4-chloro-3,6,7,8-tetrahydro-2H-indeno[4,5-b]furan-2-yl)methanamine], the melting point is reported as 265 to 268 °C.
